Source: patent publication US10874684B2, “Liponucleotide-based therapy for ARDS” (Ohio State Innovation Foundation, priority 2016, dated 2020)
“Also recorded” adds a separate entry of the source. Marks after values point to notes of the source that are not given here.

Key:
[1] = test system: influenza A/WSN/33 (H1N1)-infected mice; assay: Effect of influenza infection and i.p. liponucleotide treatment on lung function; assay type: in vivo, mouse; conditions: for HR (bpm) / WET:DRY / SaO2 (%) / CST / RBASAL: day 6
Description: CDP-choline improved oxygenation. SaO2 increased from approximately 85% to approximately 96%. This is equivalent to an increase in PaO2 from approximately 65 mmHg to approximately 85 mmHg. It is also equivalent to an increase in O2 carrying capacity of blood (CaO2) from approximately 88% to approximately 97% of normal. Patients with an SaO2 of 96% or a […] would not require additional treatment

[2] = test system: alveolar type II (ATII) epithelial cells isolated 6 days post-influenza infection; assay: Effect of influenza infection and CDP-choline treatment on mitochondrial function (Seahorse MitoStress test on isolated ATII cells); assay type: in vivo, mouse
Procedure: FIG. 17 is a plot showing effect of daily i.p. treatment with CDP-choline (CDP-CHO, 100 μg/mouse) from 1-5 days post-influenza infection on basal O2 consumption rate (OCR) of alveolar type II (ATII) epithelial cells isolated at 6 days post-mock infection or 6 days post-influenza infection and OCR after subsequent treatment of the same ATII cells with oligomycin (1 μM). **=P<0.005, #=P<0.001.
FIG. 18 is a plot showing effect of daily i.p. treatment with CDP-choline (CDP-CHO, 100 μg/mouse) from 1-5 days post-influenza infection on ATP production, non-mitochondrial (non-mt) respiration, and proton (H^+) leak of alveolar type II (ATII) epithelial cells isolated at 6 days post-mock infection or 6 days post-influenza infection. *=P<0.05, #=P<0.001.

[3] = test system: ATII cells from influenza A/WSN/33 (H1N1)-infected mice; assay: Effect of influenza infection and CDP-choline treatment on ATII cell ultrastructure (transmission electron micrographs); assay type: in vivo, mouse
Description: FIG. 14 is a group of three transmission electron micrographs showing effects of CDP-choline treatment on ultrastructure of ATII cell lamellar bodies (composed of surfactant lipids and proteins). Relative to mock-infected controls, lamellar bodies in ATII cells from influenza A/WSN/33 (H1N1)-infected mice are smaller and have disordered lamellae.
FIG. 15 is a group of 3 transmission electron micrographs showing effects of influenza infection on ultrastructure of ATII cell mitochondria (Mi). Relative to mock-infected controls (left), Mi in ATII cells from A/WSN/33 (H1N1)-infected mice (center) are fewer in number, less electron dense, and have disordered membranes and cristae.

influenza-infected mice [4] = assay: Effect of influenza infection and CDP-choline treatment on lung inflammation; assay type: in vivo; conditions: day 6 flu; 100 μg/mouse i.p. daily from 1-5 days post-infection
[5] = test system: mice with ARDS induced by intranasal bleomycin; assay: Bleomycin-induced ARDS in mice, i.p. liponucleotide treatment; assay type: in vivo; conditions: day 7 after intranasal bleomycin 0.1 mg/mouse; daily i.p. from days 1-6
influenza-infected mice [6] = assay: Treatment with CDP-choline precursors (choline, CTP) in influenza-infected mice, arterial oxygenation; assay type: in vivo; conditions: day 6 post-influenza infection; daily i.p. 100 μg/mouse from 1-5 days post-infection; compared with CDP-choline
Procedure: FIG. 16 is a plot showing effect of daily i.p. treatment with choline (100 μg/mouse), cytidine triphosphate (CTP, 100 μg/mouse), and choline+CTP from 1-5 days post-influenza infection on mouse O2 sats (SaO2) at day 6 post-influenza infection.

[7] = influenza-infected mice, i.p. daily from 1-5 days post-infection
[8] = influenza-infected mice, i.p. daily from 1-5 days post-infection, CDP-CHO/CDP-ETH 100 μg/mouse, CDP-DAG 10 μg/mouse
[9] = influenza-infected mice, 100 μg/mouse i.p. on day 5 only
[10] = ATII cells isolated 6 days post-influenza infection, Seahorse MitoStress, effect on influenza-induced impairment
[11] = day 6 flu, 100 μg/mouse i.p. daily from 1-5 days post-infection

## CCCCCCCCCCCCCCCC(=O)OC[C@H](COP(=O)(O)OP(=O)(O)OC[C@H]1O[C@@H](n2ccc(N)nc2=O)[C@H](O)[C@@H]1O)OC(=O)CCCCCCCCCCCCCCC [CDP-DAG, CDP-diacylglycerol]
[1]; [7]
  HR (bpm): 600 ± 10 bpm
  WET:DRY: 5.8 ± 0.1
[1]; [8]
  SaO2 (%): 95.2 ± 1.6 %

## C[N+](C)(C)CCOP(=O)(O)OP(=O)(O)OC[C@H]1O[C@@H](n2ccc(N)nc2=O)C(O)C1O (some centres unmarked) [CDP-CHO, Cytidine diphosphate-choline]
[1]; equivalent of SaO2 increase, from approximately 65 mmHg
  PaO2 equivalent after treatment: approximately 85 mmHg
[1]; equivalent of SaO2 increase, from approximately 88%
  O2 carrying capacity of blood (CaO2) after treatment: approximately 97 % of normal
[1]; influenza-infected mice
  cardiac function: improved cardiac function
  effects of single dose treatment late in infection versus daily treatment: as good as those of daily treatment
  lung function: better lung function
  pulmonary edema: reduced pulmonary edema
[1]; [9]
  CST: 0.05 ± 0.006
  HR (bpm): 550 ± 10 bpm
  RBASAL: 1.63 ± 0.22
  SaO2 (%): 92.9 ± 1.5 %
  WET:DRY: 6.2 ± 0.2
[1]; [7]
  CST: 0.05 ± 0.002
  HR (bpm): 570 ± 10 bpm
  RBASAL: 1.96 ± 0.12
  WET:DRY: 6.2 ± 0.4
[1]; [8]
  SaO2 (%): 93.5 ± 1.0 %
[1]; influenza-infected mice, increased from approximately 85%
  SaO2 after treatment: approximately 96%
[2]; ATII cells isolated 6 days post-influenza infection, 100 μg/mouse i.p. daily days 1-5, effect on influenza-induced impairment
  basal O2 consumption rate (OCR), mitochondrial oxidative phosphorylation: reversed
[2]; [10]
  ATP production: reversed
  non-mitochondrial (non-mt) respiration: reversed
  proton (H+) leak (coupling efficiency): reversed
[2]; ATII cells isolated 6 days post-influenza infection, oligomycin 1 μM, effect on influenza-induced impairment
  OCR after oligomycin (ATP synthase activity): reversed
[2]; [11]
  MITOCHONDRIAL MEMBRANE POTENTIAL (ψm; DilC1(5) MCF): 10.14 ± 2.3*
  MIT[…] PRODUCTION: 36.91 ± 6.82#
[3]; [11]
  ATII CELL AREA (μm^2): 53.64 ± 5.63* μm^2
  LAMELLAR BODIES/CELL: 8.1 ± 1.16
  LAMELLAR BODY AREA (μm^2): 0.41 ± 0.04* μm^2
  MITOCHONDRIAL/CELL: 14.5 ± 1.78
  MIT[…] (μm^2): 0.34 ± 0.01* μm^2
[3]; transmission electron micrographs, A/WSN/33 (H1N1)-infected mice
  ATII cell lamellar body morphology: improves lamellar body morphology
[3]; transmission electron micrographs, A/WSN/33 (H1N1)-infected mice, listed as CDP-choline
  ATII cell mitochondria (Mi) morphology: more electron-dense and have more normal cristae; also recorded: display normal morphology
influenza-infected mice [4]
  BALF ALVEOLAR MACS (×10^6/ml): 1.08 ± 0.21 ×10^6/ml
  BALF NEUTROPHILS (×10^6/ml): 0.45 ± 0.07 ×10^6/ml
  BALF PC: 1.61 ± 0.45
  VIRAL TITER (log PFU/g): 5.32 ± 0.07 log PFU/g
[5]
  mouse O2 sats (SaO2), hypoxemia: can attenuate hypoxemia
  mouse weight loss (% of starting body weight), cachexia: no such beneficial effect

## Nc1ccn([C@@H]2O[C@H](COP(=O)(O)OP(=O)(O)OP(=O)(O)O)[C@@H](O)[C@H]2O)c(=O)n1 [CTP, cytidine triphosphate]
influenza-infected mice [6]
  beneficial effect on arterial oxygenation, mouse O2 sats (SaO2): cannot be reproduced

## NCCOP(=O)(O)OP(=O)(O)OC[C@H]1O[C@@H](n2ccc(N)nc2=O)[C@H](O)[C@@H]1O [CDP-ETH, CDP-ethanolamine]
[1]; [7]
  HR (bpm): 540 ± 20 bpm
  WET:DRY: 6.5 ± 0.4
[1]; [8]
  SaO2 (%): 91.1 ± 1.5%
